From ChEMBL document CHEMBL1909046, “DrugMatrix in vitro pharmacology data” come the findings set out here.

In assay [1] the target is T1, Receptor-type tyrosine-protein phosphatase C (Homo sapiens, UniProt P08575).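 Note: inhibition of CD45 enzyme activity measured using DiFMUP as substrate; in other assays of this panel Not Active means under 50% inhibition at 10 µM.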
T1 sequence (P08575 whole entry): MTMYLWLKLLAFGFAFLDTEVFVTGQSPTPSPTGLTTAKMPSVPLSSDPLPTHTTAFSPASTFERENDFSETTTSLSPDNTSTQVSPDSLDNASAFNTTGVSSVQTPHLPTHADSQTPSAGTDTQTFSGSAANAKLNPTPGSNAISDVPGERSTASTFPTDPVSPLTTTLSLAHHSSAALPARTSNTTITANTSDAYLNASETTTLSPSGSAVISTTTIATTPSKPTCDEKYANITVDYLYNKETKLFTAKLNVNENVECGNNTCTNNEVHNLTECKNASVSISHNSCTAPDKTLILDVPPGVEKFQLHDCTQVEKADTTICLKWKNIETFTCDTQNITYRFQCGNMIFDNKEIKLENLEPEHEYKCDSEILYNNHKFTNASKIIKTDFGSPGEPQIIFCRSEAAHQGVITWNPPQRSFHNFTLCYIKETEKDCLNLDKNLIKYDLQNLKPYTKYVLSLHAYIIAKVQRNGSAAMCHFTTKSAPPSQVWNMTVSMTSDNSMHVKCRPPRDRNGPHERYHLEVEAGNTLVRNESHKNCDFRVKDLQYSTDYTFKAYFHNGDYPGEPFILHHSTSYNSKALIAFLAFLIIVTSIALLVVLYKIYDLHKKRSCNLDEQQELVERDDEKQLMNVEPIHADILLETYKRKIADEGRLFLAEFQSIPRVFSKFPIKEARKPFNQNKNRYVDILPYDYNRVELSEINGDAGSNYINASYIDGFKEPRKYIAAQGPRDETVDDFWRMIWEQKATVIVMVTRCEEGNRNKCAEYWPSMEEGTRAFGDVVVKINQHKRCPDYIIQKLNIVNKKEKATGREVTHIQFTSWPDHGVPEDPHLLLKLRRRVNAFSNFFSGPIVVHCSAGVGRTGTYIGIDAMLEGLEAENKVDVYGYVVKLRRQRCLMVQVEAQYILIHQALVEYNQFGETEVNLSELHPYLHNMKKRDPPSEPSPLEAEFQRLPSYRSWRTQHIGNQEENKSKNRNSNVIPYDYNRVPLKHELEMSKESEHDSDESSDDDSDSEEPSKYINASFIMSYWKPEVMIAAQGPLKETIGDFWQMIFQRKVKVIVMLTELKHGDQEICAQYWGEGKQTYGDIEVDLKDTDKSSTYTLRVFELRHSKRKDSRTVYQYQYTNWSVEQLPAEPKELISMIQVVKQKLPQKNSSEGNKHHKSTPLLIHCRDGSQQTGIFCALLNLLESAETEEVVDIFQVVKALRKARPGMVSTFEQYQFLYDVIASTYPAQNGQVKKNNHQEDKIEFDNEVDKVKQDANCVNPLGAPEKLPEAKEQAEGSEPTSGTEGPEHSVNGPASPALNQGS
Also noted: species or system Escherichia coli.

Assay [2] can be described thus: DRUGMATRIX: Interleukin IL-1 radioligand binding (ligand: [125I] interleukin 1beta). In kind it is cell membranes, Membrane. The following applies: nih3t3; Not Active = under 50% inhibition at 10 µM.
The nature of assay [3]: DRUGMATRIX: Purinergic P2X radioligand binding (ligand: [3H] alpha, beta-Methylene-ATP). The assay is classed as cell membranes, Oryctolagus cuniculus, New Zealand albino, Urinary bladder, Membrane. The settings on record: Not Active = under 50% inhibition at 10 µM.
The target in assay [4] is Beta-3 adrenergic receptor (Homo sapiens, UniProt P13945). As to the kind of experiment: DRUGMATRIX: Adrenergic beta3 radioligand binding (ligand: [125I] Cyanopindolol). The assay is classed as cell membranes, HEK293, Membrane. The settings on record: Not Active = under 50% inhibition at 10 µM.
The target in a further assay is T2, Progesterone receptor (Bos taurus, UniProt Q690N0).
T2 sequence (Q690N0 whole entry): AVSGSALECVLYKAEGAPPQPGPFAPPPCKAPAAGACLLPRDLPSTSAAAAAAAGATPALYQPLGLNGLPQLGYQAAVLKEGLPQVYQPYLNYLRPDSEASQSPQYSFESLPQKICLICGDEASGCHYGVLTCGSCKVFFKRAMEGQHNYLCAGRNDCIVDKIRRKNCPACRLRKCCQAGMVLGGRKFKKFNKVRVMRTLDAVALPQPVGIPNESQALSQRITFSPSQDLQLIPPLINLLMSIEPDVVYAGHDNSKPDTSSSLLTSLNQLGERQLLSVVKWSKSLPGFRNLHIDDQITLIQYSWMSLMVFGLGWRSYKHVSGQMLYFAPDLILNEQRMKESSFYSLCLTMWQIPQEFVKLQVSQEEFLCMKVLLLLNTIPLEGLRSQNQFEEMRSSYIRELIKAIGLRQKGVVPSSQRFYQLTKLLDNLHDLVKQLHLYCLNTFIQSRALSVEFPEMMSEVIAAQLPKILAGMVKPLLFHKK
Put plainly: DRUGMATRIX: Progesterone radioligand binding (ligand: [3H] R-5020). The settings on record: Not Active = under 50% inhibition at 10 µM. The assay is classed as tissue-based, Uterus.

A short description of assay [5]: DRUGMATRIX: Imidazoline I2, Central radioligand binding (ligand: [3H] Idazoxan). In kind it is cell membranes, Rattus norvegicus, Wistar, Cerebral cortex, Membrane. The following applies: Not Active = under 50% inhibition at 10 µM.
Assay [6] is described as follows: DRUGMATRIX: beta-Lactamase enzyme inhibition (substrate: Nitrocefin). Further details: species or system Bacillus cereus. The following applies: Not Active = under 50% inhibition at 10 µM.

Beta-3 adrenergic receptor, sequence (P13945 whole entry): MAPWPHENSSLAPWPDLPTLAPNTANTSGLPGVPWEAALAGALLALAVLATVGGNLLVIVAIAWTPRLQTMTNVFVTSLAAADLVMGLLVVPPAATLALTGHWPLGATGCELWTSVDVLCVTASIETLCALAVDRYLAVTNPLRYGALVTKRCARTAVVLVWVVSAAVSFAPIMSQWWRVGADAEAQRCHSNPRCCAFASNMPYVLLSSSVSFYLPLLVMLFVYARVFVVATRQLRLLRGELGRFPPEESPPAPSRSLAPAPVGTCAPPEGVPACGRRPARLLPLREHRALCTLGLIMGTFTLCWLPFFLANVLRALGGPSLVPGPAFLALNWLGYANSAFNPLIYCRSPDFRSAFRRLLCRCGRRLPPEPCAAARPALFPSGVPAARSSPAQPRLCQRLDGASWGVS

As usually defined, the IC50 is the concentration that inhibits the measured activity by half. The Ki is a dissociation constant, usually derived from enzyme kinetics or from competition with a known ligand. Turning to `Cc1c(C)c2c(c(C)c1O)CCC(C)(COc1ccc(CC3SC(=O)NC3=O)cc1)O2` (centres undefined) [TROGLITAZONE], the 50% inhibitory concentration (IC50) result (in assay [1]; in assay [2]; in assay [3]; in assay [4] (hek293); at Progesterone receptor; in assay [5]) was “Not Active” in each case. In addition, the concentration for half-maximal inhibition (IC50) entry in assay [6] was “Not Active”. The Ki result in assay [2], in assay [3], in assay [5] and in assay [6] was “Not Active” throughout.
In the case of `c1ccc([C@H]2CN3CCSC3=N2)cc1` [LEVAMISOLE], the IC50 entry (in assay [1]; in assay [2]; in assay [3]; in assay [4] (hek293); on Progesterone receptor; in assay [5]) was “Not Active” in each case. The IC50 result in assay [6] is reported as “Not Active”. Besides, the Ki result in assay [2], in assay [3], in assay [5] and in assay [6] was “Not Active” in each case.
For the compound `CC[C@]1(O)C[C@H]2CN(CCc3c([nH]c4ccccc34)[C@@](C(=O)OC)(c3cc4c(cc3OC)N(C=O)[C@H]3[C@@](O)(C(=O)OC)[C@H](OC(C)=O)[C@]5(CC)C=CCN6CC[C@]43[C@@H]65)C2)C1` [VINCRISTINE], the IC50 entry (in assay [1]; in assay [2]; in assay [3]; in assay [4] (hek293); on Progesterone receptor; in assay [5]) was “Not Active” in each case. For the same compound, the 50% inhibitory concentration (IC50) entry in assay [6] is given as “Not Active”. Besides, the inhibition constant (Ki) entry in assay [2], in assay [3], in assay [5] and in assay [6] was “Not Active” in each case.
Take `O=c1ncn2nc(Sc3ccc(F)cc3F)ccc2c1-c1c(Cl)cccc1Cl` [NEFLAMAPIMOD]: the IC50 entry (in assay [1]; in assay [2]; in assay [3]; in assay [4] (hek293); at Progesterone receptor; in assay [5]) was “Not Active” each time. The IC50 result in assay [6] is on record as “Not Active”. Further, the Ki result in assay [2], in assay [3], in assay [5] and in assay [6] was “Not Active” throughout.
For `NS(=O)(=O)c1cc2c(cc1Cl)NC(C(Cl)Cl)NS2(=O)=O` (centres undefined) [TRICHLORMETHIAZIDE], the IC50 result (in assay [1]; in assay [2]; in assay [3]; in assay [4] (hek293); at Progesterone receptor; in assay [5]) was “Not Active” throughout. For the same compound, the 50% inhibitory concentration (IC50) entry in assay [6] is reported as “Not Active”. For the same compound, the inhibitory constant (Ki) entry in assay [2], in assay [3], in assay [5] and in assay [6] was “Not Active” each time.
On to `CCCOc1ccccc1-c1nc2nn[nH]c2c(=O)[nH]1` [ZAPRINAST], for which the IC50 result (in assay [1]; in assay [2]; in assay [3]; in assay [4] (hek293); on Progesterone receptor; in assay [5]) was “Not Active” in each case. The concentration for half-maximal inhibition (IC50) result in assay [6] is recorded as “Not Active”. Besides, the Ki result in assay [2], in assay [3], in assay [5] and in assay [6] was “Not Active” throughout.
As for `N#CC(C#N)=Cc1ccc(O)c(O)c1` [TYRPHOSTIN 23], the IC50 result (in assay [1]; in assay [2]; in assay [3]; in assay [4] (hek293); on Progesterone receptor; in assay [5]) was “Not Active” throughout. Moreover, in assay [6], the IC50 entry is “Not Active”. Moreover, the inhibition constant Ki entry in assay [2], in assay [3], in assay [5] and in assay [6] was “Not Active” throughout.
For `C=CCC1(C(C)CCC)C(=O)NC(=O)NC1=O` (centres undefined) [SECOBARBITAL], the half-inhibitory concentration (IC50) entry (in assay [1]; in assay [2]; in assay [3]; in assay [4] (hek293); on Progesterone receptor; in assay [5]) was “Not Active” each time. For the same compound, the half-maximal inhibitory concentration (IC50) entry in assay [6] was “Not Active”. Also, the Ki result in assay [2], in assay [3], in assay [5] and in assay [6] was “Not Active” in each case.
On to `OCCN(CCO)c1nc(N2CCCCC2)c2nc(N(CCO)CCO)nc(N3CCCCC3)c2n1` [DIPYRIDAMOLE], for which the IC50 result (in assay [1]; in assay [2]; in assay [3]; in assay [4] (hek293); at Progesterone receptor; in assay [5]) was “Not Active” throughout. Also, the IC50 entry in assay [6] is on record as “Not Active”. In addition, the Ki result in assay [2], in assay [3], in assay [5] and in assay [6] was “Not Active” each time.
Turning to `Nc1c2c(nc3ccccc13)CCCC2` [TACRINE], the 50% inhibitory concentration (IC50) result (in assay [1]; in assay [2]; in assay [3]; in assay [4] (hek293); at Progesterone receptor; in assay [5]) was “Not Active” throughout. For the same compound, the IC50 result in assay [6] is “Not Active”. Moreover, the inhibition constant (Ki) result in assay [2], in assay [3], in assay [5] and in assay [6] was “Not Active” throughout.
`CC/C(=C(\c1ccccc1)c1ccc(OCCN(C)C)cc1)c1ccccc1` [TAMOXIFEN]: the concentration for half-maximal inhibition (IC50) result is “Not Active” in assay [1], 7.7 µM in assay [4] (read-out: IC50) and 19.8 µM on Progesterone receptor (read-out: IC50). Further, the Ki turned out to be 5.78 µM in assay [4] (read-out: Ki) and 2.59 µM on Progesterone receptor (read-out: Ki).
Consider `CN1CCN(CCCN2c3ccccc3Sc3ccc(Cl)cc32)CC1` [PROCHLORPERAZINE], for which the IC50 result (in assay [1]; in assay [4] (hek293); on Progesterone receptor) was “Not Active” in each case.
In the case of `CC(C)N1CCN(c2ccc(OCC3COC(Cn4cncn4)(c4ccc(Cl)cc4Cl)O3)cc2)CC1` (centres undefined) [TERCONAZOLE], the IC50 result in assay [1] is “Not Active”; in assay [3], “Not Active”; at Progesterone receptor it was “Not Active”; in assay [5] (read-out: IC50), 2.23 µM; in assay [6], “Not Active”. Further, the Ki entry was “Not Active” in assay [3], 1.48 µM in assay [5] (read-out: Ki) and “Not Active” in assay [6].
Consider `Cc1nc2n(c(=O)c1CCN1CCC(c3noc4cc(F)ccc34)CC1)CCCC2` [RISPERIDONE], for which the half-maximal inhibitory concentration (IC50) entry (in assay [1]; in assay [4] (hek293); on Progesterone receptor) was “Not Active” throughout.
Turning to `CCCCc1oc2ccccc2c1C(=O)c1cc(I)c(OCCN(CC)CC)c(I)c1` [AMIODARONE], the IC50 result (in assay [1]; on Progesterone receptor) was “Not Active” throughout.
In the case of `N[C@@H](Cc1cc(I)c(Oc2ccc(O)c(I)c2)c(I)c1)C(=O)O` [LIOTHYRONINE], the IC50 result (in assay [1]; in assay [4] (hek293); at Progesterone receptor) was “Not Active” in each case.
